As usually defined, the Ki is the dissociation constant of the complex between target and ligand, obtained from inhibition or displacement. Read a low Ki as tighter binding.

From patent US8367696B2, “Aza-bridged-ring compound” (Astellas Pharma Inc., priority 2007, dated 2013) come the findings set out here.

One assay deals with carbachol-induced airway contraction. The experiment in a line: Test of rat airway contraction (carbachol-induced rise in airway pressure). As to conditions: evaluation after 3 hours from oral administration, carbachol 30 μg/kg i.v. The class given is in vivo. On the procedure:
a. Test of Rat Airway Contraction
Male SD rats (250 to 400 g) were anesthetized by the intraperitoneal administration of pentobarbital sodium (Nembutal; 50 mg/kg), and the major airway was dissected. An airway cannula was intubated into the trachea, and the pressure in the airway was measured by a pressure transducer. After administration of pancuronium bromide (0.2 mg/kg, i.v.), a stable pressure in the airway was obtained before the experiment was initiated. For the experiment, by administration into the external maxillary vein/administration into the duodenum/oral administration/administration into the airway, physiological saline (in the case of oral administration/administration into the duodenum, distilled water) or a compound to be tested was administered, and after 5 to 30 minutes in the case of intravenous administration, after 0.25 to 6 hours in the case of oral administration into the duodenum, and after 0.25 to 72 hours in the case of administration into the airway, carbachol was intravenously administered at a dose (volume) of 30 μg/kg (1 mL/kg), and the pressures in the airway were then measured, respectively, for a period of 5 minutes. […]
Regarding `Cl.O=C(Nc1ncsc1-c1ccccc1)OCC12CCN(CC1)CC2` [Example 6, 1-azabicyclo[2.2.2]oct-4-ylmethyl(5-phenyl-1,3-thiazol-4-yl)carbamate hydrochloride], the “ID50, carbachol-induced airway contraction inhibitory action” value is reported as 0.1 mg/kg. On to `O=C(Nc1ncsc1-c1ccccc1)OC12CCCN(CC1)CC2` [Example 14, 1-azabicyclo[3.2.2]non-5-yl(5-phenyl-1,3-thiazol-4-yl)carbamate], for which the “ID50, carbachol-induced airway contraction inhibitory action” value is on record as 0.027 mg/kg. The same measure, in the same setting: in the case of `Cl.O=C(Nc1ncsc1-c1ccccc1)OC1C2CC3CC1CN(C3)C2` (centres unmarked) [Example 110] it was 0.41 mg/kg; in that of `Cl.O=C(Nc1ccsc1-c1ccccc1)OCC1CN2CCC1CC2` (centres unmarked) [Example 136], 0.68 mg/kg; in that of `Cl.O=C(Nc1ncsc1-c1ccc(F)cc1)OC12CCN(CC1)CC2` [Example 156], 0.091 mg/kg.

For `Cl.O=C(Nc1ncsc1-c1ccccc1)OCC1CN2CCCC1C2` (centres unmarked) [Example 264], the “ID50, carbachol-induced airway contraction inhibitory action” value is 0.21 mg/kg.

The same assay, now with this note: evaluation after 24 hours from administration into the trachea of 0.5 μg/kg of a drug.
Consider `C[N+]12CCC(OC(=O)Nc3ncsc3-c3cccc(Cl)c3)(CC1)CC2` [Example 32], for which the “Inhibition rate, carbachol-induced airway contraction inhibitory action” value (shortened to “Inhibition rate”) was found to be 82%.

On to `O=C(Nc1ccsc1-c1ccccc1)OCC1C[N+]2(CCCc3ccccc3)CCC1CC2` (centres unmarked) [Example 43], for which the “Inhibition rate” value is 64%. Same read-out and setting: as for `O=C(Nc1ncsc1-c1ccccc1)OC12CC[N+](CCOc3ccccc3)(CC1)CC2` [Example 46], the figure is 90%. `O=C(Nc1ncsc1-c1ccccc1)OC12CC[N+](CCc3ccccc3)(CC1)CC2` [Example 50]: the “Inhibition rate” value stood at 61%. Same read-out and setting: in the case of `C[N+]12CCC(OC(=O)Nc3ncsc3-c3cc(F)ccc3F)(CC1)CC2.[I-]` [Example 57] it was 64%; in that of `C[N+]12CCCC(OC(=O)Nc3ncsc3-c3ccccc3)(CC1)CC2.[I-]` [Example 65], 61%. On to `O=C(Nc1ncsc1-c1cccc(Cl)c1)OC12CC[N+](CCOc3ccccc3)(CC1)CC2.[Br-]` [Example 66], for which the “Inhibition rate” value was 80%.

For another assay, the target named is muscarinic M3 receptor (Rattus norvegicus, UniProt P08483).
muscarinic M3 receptor, sequence (P08483 whole entry): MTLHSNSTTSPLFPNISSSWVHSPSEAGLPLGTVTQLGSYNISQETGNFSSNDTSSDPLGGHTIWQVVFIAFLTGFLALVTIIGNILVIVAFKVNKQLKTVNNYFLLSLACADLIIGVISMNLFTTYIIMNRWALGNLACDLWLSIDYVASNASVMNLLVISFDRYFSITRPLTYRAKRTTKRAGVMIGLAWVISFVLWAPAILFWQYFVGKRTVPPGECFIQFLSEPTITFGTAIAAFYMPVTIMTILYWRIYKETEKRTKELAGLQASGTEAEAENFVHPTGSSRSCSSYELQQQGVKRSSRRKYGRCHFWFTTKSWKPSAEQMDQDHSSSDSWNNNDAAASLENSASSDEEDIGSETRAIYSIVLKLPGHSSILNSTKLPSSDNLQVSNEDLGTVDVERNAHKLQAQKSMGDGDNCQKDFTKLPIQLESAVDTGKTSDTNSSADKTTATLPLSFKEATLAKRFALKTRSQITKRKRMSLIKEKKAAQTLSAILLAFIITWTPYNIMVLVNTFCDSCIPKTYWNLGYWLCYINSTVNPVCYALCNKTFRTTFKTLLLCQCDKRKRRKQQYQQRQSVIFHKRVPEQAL
Experiment: not given
As to conditions: receptor binding antagonistic experiment, [3H]-N-methylscopolamine, rat membrane specimen, 25° C. 2 hours.
`O=C(Nc1ncsc1-c1ccccc1)OC12CCN(CC1)CC2` [Example 95] showed a Ki of 0.2 nM.
